From patent publication US9861601B2 (The Board of Trustees of the Leland Stanford Junior …, priority 2012, dated 2018)
Where two headings read alike, the source gives them in different places.

How the values were obtained:
[1] = tested on: Rat pulmonary arterial endothelial cells (PAECs); test: PAEC apoptosis assay (Annexin V flow cytometry, with or without macrophage co-culture); type: cell-based
Description: The transwell assay involved co-culturing IMØs from several sources with PAECs. IMØs, from (A) DMSO and (B) SU rat lungs, were isolated and co-cultured with PAECs. After 24 hr, PAEC apoptosis was analyzed by flow cytometry for Annexin V expression. To isolate the specific impact of LTB4 generated by 5-LO activation further, IMØs were extracted from healthy rats and transfected with S271E to produce a phosphorylation mimic mutant or with S271A to produce a dephosphorylation mimic mutant. Vector and WT 5-LO DNA-transfected IMØs were used as controls. Flow cytometry was performed on PAECs co-cultured with IMØs extracted from healthy rats and transfected with (C) vector as control, (D) WT 5-LO, (E) S271A, (F) S271E (G) S271E mutant treated with n-acetyl cysteine (NAC) (200 nM) or (H) S271A mutant treated with LTB4 (100 nM). PAECs were treated with (I) exogenous LTB4 (200 nM) or (J) LTB4 (200 nM) with a BLT1 inhibitor U75302 […] (n=3 experiments per group). Representative flow cytometry plots are shown, n=3 experiments per group.
The results reported in this example were obtained using the following PAEC apoptosis assay. Rat pulmonary arterial endothelial cells (PAECs) were co-cultured with macrophages (+/− transfection) for 24 hr. They were then washed once with PBS and once with binding buffer from the Annexin V Apoptosis Detection Kit (88-8007; eBioscience). Cells were then suspended in binding buffer at 1-5×10^6/ml. 5 μl of APC conjugated Annexin V was added to 100 μl of cells, which were then incubated at room temperature for 15 min. Five μl of propidium iodide staining solution were added 5 min. prior to flow cytometry analysis on an LSRFortessa cell analyzer (BD Biosciences).

[2] = tested on: human primary pulmonary arterial smooth muscle cell (hPASMC); test: hPASMC proliferation (MTT) and hypertrophy (protein/DNA ratio) assay; type: cell-based; conditions: 24 hr
Description: An in vitro toxicology assay kit (#M-5655, #8910, Sigma) was used to measure the number of viable hPASMC after LTB4 treatment. Briefly, hPASMCs were plated in a 96 well plate one day before treatment. Cells were treated with 200 nM or 400 nM LTB4 for 24 hr. On the day of assay, growing medium was first removed from the cells, then 20 μL of 12 mM MTT ((3-(4,5-Dimethylthiazol-2-yl)-2,5-diphenyltetrazolium bromide, a yellow tetrazole)) stock solution were then added to each well. After incubation at 37 degrees C. for 4 hr, 200 μL MTT dissolution solution (10% Triton X-100 plus 0.1 N HCl in anhydrous isopropanol) were added to each well. Relative optical density, which was used as a parameter for proliferation, was calculated by subtracting the absorbance at 690 nm from that at 570 nm. Cellular hypertrophy was determined by protein/DNA ratio. hPASMCs were seeded on 6 well plates. Cells were treated with 200 nM or 400 nM LTB4 for 24 hr. hPASMCs were then collected and divided into to two. For one part of each sample, a BCA protein assay kit (#23227, Thermo Scientific) was used to determined the total protein amount. DNA was purified from the other part of the sample using a Miniprep kit (QIAGEN). DNA concentration was then measured by nanodrop.

[3] = patients with PAH; cited from earlier work
athymic rat model of PAH = test: SU5416 athymic nude rat model of PAH (PH); type: in vivo; conditions: for reversal of established PH / PH-related death: treatment started 21 days (3 wk) after SU5416, doses as in b355, assessed at wk 5
Description: (§1) In the model, PH was first initiated by a single injection of a VEGFR2 inhibitor, SU5416, and monitored by weekly echocardiography. Survival of the animals was recorded on daily basis. […] After 5 weeks (day 35), animals were sacrificed after right heart catheterization. […] Oral availability of ubenimex was determined by pharmacokinetic analysis.
The athymic nude rat model is an accepted model of severe PAH associated with immune dysregulation. Athymic nude rats (rnu/rnu) (Charles River Laboratories) were used for these studies. Six to eight week old animals were injected subcutaneously (s.c.) with a single dose of either SU5416 (SU) (10 mg/kg) dissolved in DMSO or DMSO (vehicle) alone. All animals were maintained in normoxic conditions. PH progression was monitored by weekly echocardiography (ECHO). Survival of rats was monitored out to wk 5 when they underwent a terminal right heart catheterization. PH was confirmed by ECHO. Hemodynamic measurements included right ventricular systolic pressure (RVSP) determined by right heart catheterization and right ventricular hypertrophy (RVH) determined by the weight ratio of RV/(LV+S) (right ventricle/(left ventricle+septum)).
All animals were sacrificed 5 wk after SU administration for hemodynamic measurements. […] Serial improvement was observed from the time of treatment initiation. Interval improvement was manifested by decreasing RV wall thickness and increasing pulmonary artery acceleration times (PAAT) after initiation of treatment. […] Here again, the compound of Formula III was notable: treatment with that compound yielded an RVH ratio of 0.29. RVH for healthy rats is generally about 0.25.

[4] = Pharmacokinetic analysis of oral ubenimex formulation; type: in vivo, rat; conditions: PEG-400/HPCD formulation
Description: as §1
(not a statin-derivative), is a well-tolerated LTA4H inhibitor that blocks LTB4 formation. […] Ubenimex efficacy in reversing PAH was dose-dependent. The sustained release oral formulation was absorbed rapidly within 2-3 hours and was eliminated from the body with a T1/2 of 12 hours.
A 20% (w/v) aqueous solution of hydroxypropyl-β-cyclodextrin (HPCD) was added to the mixture to bring the volume to 50 ml.

[5] = tested on: model of rodent PH utilizing SU and exposure to chronic hypoxia; test: Rodent PH model utilizing SU and chronic hypoxia (animals not prone to immune dysregulation); type: in vivo; conditions: therapy initiated late in disease development

SMILES: CCCCC/C=C\C[C@@H](O)/C=C/C=C/C=C\[C@@H](O)CCCC(=O)O [LTB4, leukotriene B4]
- PAEC apoptosis induced by exogenous leukotriene (no macrophages) ([1]; 24 hrs): significant apoptosis
- PAEC apoptosis in co-culture with S271A transfected macrophages ([1]; exogenous LTB4 (100 nM)): caused apoptosis
- cellular hypertrophy (protein/DNA ratio) ([2]; 200 nM or 400 nM): increased in a similar pattern
- number of PASMC versus negative control group ([2]; 200 nM): 1.8 fold
- number of PASMC versus negative control group ([2]; 400 nM): two fold more

SMILES: CN1CC(=O)N2[C@H](c3ccc4c(c3)OCO4)c3[nH]c4ccccc4c3C[C@@H]2C1=O [Tadalafil]
- half-life [3]: 35 h

SMILES: CC(C)C[C@H](NC(=O)[C@@H](O)[C@H](N)Cc1ccccc1)C(=O)O [ubenimex, (2S)-2-[[(2S,3R)-3-amino-2-hydroxy-4-phenylbutanoyl]amino]-4-methylpentanoic acid]
- accumulation of 5-LO expressing periarteriolar macrophages and B cells in lungs (athymic rat model of PAH; SU-treated athymic rats): significantly reduced
- in vivo PAEC apoptosis (athymic rat model of PAH; SU-treated athymic rats): reduced
- improvement in RVSP, RVH and survival (athymic rat model of PAH; oral once a day 0.25, 0.5, 0.75, 1 mg/kg, from 3 weeks after SU5416 for 2 weeks): dose dependent improvement
- prevention of PH development and survival (athymic rat model of PAH; systemic therapy initiated when SU was first administered): very effectively prevented PH development and prolonged survival
- reversal of established PH / PH-related death (athymic rat model of PAH): reverses established PH
- reversal of established PH / PH-related death (athymic rat model of PAH; listed as Ubenimex): dose-dependent
- time of absorption [4]: ≤ 2 h
- half-life ([4]; athymic, rat, in vivo): 12 h
- response of PH animals to therapy [5]: did not respond
